Measured values reported in ChEMBL document CHEMBL1151051, “Structure-based design of novel calcineurin (PP2B) inhibitors” (Bioorg Med Chem Lett, 1997).

Key:
[1] = Inhibition of Protein phosphatase 2B; set-up: species or system Homo sapiens; conditions: read-out: Ki app
[2] = The compound was tested for the inhibition of Protein phosphatase-1 (PP1); conditions: read-out: Ki app

Row | SMILES | Ki [1] | Ki [2]
1 | O=C(O)[C@@H]1[C@H](C(=O)O)[C@H]2CC[C@@H]1O2 [ENDOTHALL] | 11500 nM | 4000 nM
2 | O=C1OC(=O)[C@@H]2[C@H]1[C@@H]1O[C@H]2C[C@@H]1COC(=O)[C@@H]1C[C@H]1c1ccccc1 | 500 nM | 4000 nM
3 | O=C(OC[C@H]1C[C@@H]2O[C@H]1[C@H]1C(=O)OC(=O)[C@H]12)c1cccc(Oc2ccccc2)c1 | 1800 nM | –
4 | O=C(OC[C@H]1C[C@@H]2O[C@H]1[C@H]1C(=O)OC(=O)[C@H]12)c1ccccc1 | 11000 nM | –
5 | O=C(CCCc1ccccc1)OC[C@H]1C[C@@H]2O[C@H]1[C@H]1C(=O)OC(=O)[C@H]12 | 1200 nM | –
6 | O=C(CCCC1CCCCC1)OC[C@H]1C[C@@H]2O[C@H]1[C@H]1C(=O)OC(=O)[C@H]12 | 1000 nM | –
7 | O=C(CCCCc1ccccc1)OC[C@H]1C[C@@H]2O[C@H]1[C@H]1C(=O)OC(=O)[C@H]12 | 2300 nM | –
8 | O=C(CCc1ccccc1)OC[C@H]1C[C@@H]2O[C@H]1[C@H]1C(=O)OC(=O)[C@H]12 | 3700 nM | –
9 | O=C(Cc1ccccc1)OC[C@H]1C[C@@H]2O[C@H]1[C@H]1C(=O)OC(=O)[C@H]12 | 7400 nM | –
10 | O=C(Cc1c[nH]c2ccccc12)OC[C@H]1C[C@@H]2O[C@H]1[C@H]1C(=O)OC(=O)[C@H]12 | 2000 nM | –
11 | O=C(OC[C@H]1C[C@@H]2O[C@H]1[C@H]1C(=O)OC(=O)[C@H]12)c1ccc(Oc2ccccc2)cc1 | 1400 nM | –
